Data taken from patent US7960549B2, “Solid forms of a chemokine receptor antagonist and methods of use thereof” (priority 2004, dated 2011).
Structures can show the parent of a compound that is named as a salt.

Columns and labels:
Format in all cases: physicochemical
[1] = Thermal gravimetric analysis (TGA)
Description: Measurements utilizing thermal gravimetric analysis (TGA) are carried out on a T.A. instruments TGAQ500 analyzer. Mass calibration is performed with 10 and 100 mg certified masses. Temperature calibration is performed with Alumel® and nickel standards (Curie points of respectively 154° C. and 354° C.). Samples are exposed to a constant nitrogen stream of 60 ml/min, and temperature ranges from room temperature to 350° C. at a 5° C./min rate. The quantity of product tested is between 2 and 13 mg. The sample is deposited in an open aluminum sample pan, which is itself placed in a platinum pan. The temperatures identified from TGA scans of a particular sample are accurate to within ±3° C. Simultaneous TGA and DSC measurements are carried out using a […] thermal analysis system produced by the […] corporation. A liquid nitrogen cooling system makes it possible to work at temperatures below 20° C. The emitted gases, upon sample heating, are carried by a transfer capillary tube to a Pfeiffer mass spectrometer, the capillary tube heated to 150° C. The mass spectrometer can analyze molecular fragments at <<m/e>> ratios between 1 and 200 uma. A sample with a mass between 1 and 27 mg is contained in an open concave aluminum sample pan (75 μL capacity) exposed to a nitrogen stream. The sample is heated at a rate of 1 or 5° C./min.

[2] = Controlled temperature (isothermal) X-ray powder diffraction: thermal stability of the crystalline form; settings: isothermal scans at intervals of 10° C.
Description: X-ray powder diffraction (XRPD) is performed on various samples of the Citrate Salt using one of three instruments. XRPD measurements with Instrument 1 utilize a Siemens-Bruker D5000 Matic powder diffractometer with a Bragg-Brentano (vertical θ-2θ configuration) parafocusing geometry. X-rays are produced from a sealed cobalt anode running at 40 kV and 30 mA. Two lines are typically emitted: CoKα1 (λ=1.7890 Å) and CoKα2 (λ=1.7929 Å). An iron β-filter limits the CoKβ (λ=1.6208 Å) radiation to about 1% of the diffracted beam at the detector. The primary beam passes through a parallel plate collimator (0.2 mm Soller slits), then through a divergence slit (0.2 mm). Diffracted X-rays are detected with a Braun 50 M multichannel linear detector having a 10°-wide detection window in angle 2θ. Scans are performed from 1.5° to 50.0° in 2θ, the scan time being 10 to 40 seconds per degree in 2θ. The error in the 2θ locations are typically within ±0.10 degrees.
In Instrument 3, XRPD measurements are performed at different temperatures to elucidate the evolution of crystal structure with temperature. Tests are carried out with a Siemens-Bruker D5000 diffractometer equipped with the Bragg Brentano parafocusing (θ-θ) geometry and an Anton-Paar TTK temperature chamber. Measurements utilize dry nitrogen or nitrogen streams having a particular humidity. The instrument specifications are substantially similar to the Siemens-Bruker D5000 Matic instrument described above (Instrument 1). Temperature is allowed to rise at a rate of 0.05° C./sec. Scans are recorded under the following conditions: a 1.5 to 50.0 degree scan in angle 2θ, 10 to 20 seconds counting time per degree in 2θ. Data are acquired in isotherm mode when the requested temperature is reached.

[3] = Water sorption/desorption cycling (dynamic vapor sorption, DVS) at 25° C., with XRPD before and after; settings: 25° C.
Description: Water sorption measurements are performed on a DVS-1 automated gravimetric vapor sorption analyser (Surface Measurement Systems Ltd., London, UK). The DVS-1 measures the uptake and loss of vapor gravimetrically using a Cahn D200 recording ultra-microbalance with a mass resolution of ±0.1 μg. The relative humidity around the sample is controlled by mixing saturated and dry carrier gas streams using mass flow controllers. The temperature is maintained within ±0.1° C. by enclosing the entire system in a temperature-controlled incubator. A sample size between 15 and 20 mg is used. In general, the error in % (w/w) identified in a tested sample is ±0.1% (w/w).
Two protocols are utilized to operate the DVS. In one protocol, a sample is dried at 0% relative humidity (RH) to remove any surface water present and establish a dry, baseline mass. Next, the sample is exposed to the following relative humidity profile: 0%, 10%, 20%, 30%, 40%, 50%, 60%, 70%, 80%, 90%, 80%, 70%, 60%, 50%, 40%, 30%, 20%, 10%, 0%. In some instances, this profile is repeated, yielding 4 sets of data going up and down in RH. In another protocol, the sample is first equilibrated at 40% RH, then it was exposed to the following relative humidity profile: 40%, 50%, 60%, 70%, 80%, 90%, 100%, 90%, 80%, 70%, 60%, 50% 40% 30%, 20% 10%, 0%, 10%, 20%, 30%, 40%. […] If equilibrium state is not reached, the change in relative humidity took place automatically after 360 or 600 minutes. From the complete moisture sorption and desorption profile, an isotherm is calculated using the DVS Advanced Analysis Suite v3.6. All experiments were performed at 25° C.

[4] = Prolonged exposure to fixed relative humidity or rinsing with water, XRPD before and after; settings: week long exposure; ambient temperature
[5] = Differential scanning calorimetry (DSC)
Description: Differential scanning calorimetry (DSC) analyses are performed using a T.A Instruments Q1000 thermal analyser. Analyses are carried out using nitrogen purge gas flowing at an average rate of 50 ml/min. A mechanical compressor cools the system, and equilibrates the instruments being used at ambient temperature between analyses. […] Energy calibration is performed with a certified indium calibrator (melting enthalpy of 28.45 J/g), applying a heating rate of 5° C./min. The temperatures identified from DSC scans of a particular sample are accurate to within ±3° C. […] Modulated temperature differential scanning calorimetry (MTDSC) is also used since deconvolution of the total heat flow into reversing and non-reversing heat flows allows the transitions to be easily identified. The samples were submitted to the same experimental temperature program: after the equilibration of the sample at −5° C., the samples were heated through a modulated program from −5° C. to 210° C. at a rate of 1° C./min. […] Experiments are performed using crimped aluminium sample pans or open pans in some cases. The quantity of product analysed is typically between 2 and 13 mg.

[6] = heating rate 5° C./min, sample of the single form (Form H formed from Form E sample), ±3° C.
[7] = heating rate 5° C./min, A, B, H: melting/decomposition, E: loss of water and conversion to Form H, ±3° C.
[8] = mixture of Forms A and D, 0.3° C./min, Form D: conversion to Form A, Form A: melting/decomposition
[9] = sample including Forms A and C, 5° C./min, Form C: conversion to Form A, Form A: melting/decomposition

CC(C)(O)c1ccc2c(c1)/C(=C/CCN1CC[C@](O)(c3ccc(Cl)cc3)C(C)(C)C1)c1cccnc1CO2 [Form A, citrate salt of (S)-4-(4-Chloro-phenyl)-1-{3-[7-(1-hydroxy-1-methyl-ethyl)-11H-10-oxa-1-aza-dibenzo[a,d]cyclohepten-5-ylidene]-propyl}-3,3-dimethyl-piperidin-4-ol]
TGA weight loss from ambient temperature to about 100° C. ([1]; heating rate 5° C./min): about 0.23 % (w/w)
TGA weight loss of the transition ([1]; heating rate 5° C./min, sample of the single form (Form H formed from Form E sample)): about 27.5 % (w/w)
TGA weight loss transition, interpolated beginning temperature [1, 6]: about 164 °C
TGA weight loss transition, temperature of maximum rate of weight loss [1, 6]: 183 °C
TGA weight loss ([1]; sample including Forms A and C): 21.9 % (w/w)
TGA weight loss, temperature of maximum rate of weight loss ([1]; sample including Forms A and C): 183 °C
TGA weight loss, interpolated beginning temperature ([1]; sample including Forms A and C, Form C: conversion away from Form C, Form A: decomposition/melting): 168 °C
decomposition/melting observed with controlled temperature X-ray powder diffraction [2]: above 170 °C
change in moles of water per mole of anhydrous crystal over relative humidity 0% to 90% [3]: about 0.8 moles of water per mole of anhydrous crystal
change in mass as the relative humidity is changed between 0% and 90% ([3]; dry crystal basis, known to within ±0.1%): about 1.9%
XRPD before and after water sorption/desorption cycling ([3]; two consecutive cycles, 0% to 90% relative humidity): no structural change
crystal form by XRPD after exposure to a relative humidity of 97.5% [4]: does not change form
DSC endothermic transition, Tmax ([5]; heating rate 1° C./min): 167 °C
DSC endothermic transition, interpolated beginning temperature ([5]; heating rate 1° C./min): 164 °C
DSC endothermic transition, Tmax [5, 7]: 176 °C
DSC endothermic transition, interpolated beginning temperature [5, 7]: 169 °C
DSC endothermic transition, Tmax [5, 8]: 166 °C
DSC endothermic transition, interpolated beginning temperature [5, 8]: about 160 °C
DSC endothermic transition, Tmax [5, 9]: 178 °C
DSC endothermic transition, interpolated beginning temperature [5, 9]: about 173 °C
